{"source": "patent US20240269139A1", "about": "“COMPOUNDS FOR TARGETED PROTEIN DEGRADATION OF KINASES” (DANA-FARBER CANCER INSTITUTE, INC., priority 2020, published 2024)", "type_in_all_cases": "cell-based", "key": {"[1]": {"biological_target": "T1, protein kinases (human kinome) (Homo sapiens, UniProt P53778)", "T1 sequence (P53778 1-367)": "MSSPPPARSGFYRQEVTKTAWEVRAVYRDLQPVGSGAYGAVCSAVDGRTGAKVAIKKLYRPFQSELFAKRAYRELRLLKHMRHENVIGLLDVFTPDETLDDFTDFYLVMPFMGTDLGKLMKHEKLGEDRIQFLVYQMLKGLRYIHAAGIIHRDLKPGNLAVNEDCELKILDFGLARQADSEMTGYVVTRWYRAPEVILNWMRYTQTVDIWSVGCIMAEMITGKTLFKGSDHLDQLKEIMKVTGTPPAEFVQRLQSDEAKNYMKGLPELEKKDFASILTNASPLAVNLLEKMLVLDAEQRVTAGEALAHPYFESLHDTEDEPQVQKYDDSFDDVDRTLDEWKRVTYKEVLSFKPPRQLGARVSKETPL", "conditions": "for logFC MAPK12 (P53778): direction of change down; for logFC: MAPK12 (P53778)"}, "[2]": {"biological_target": "T2, protein kinases (human kinome) (Homo sapiens, UniProt Q9H2K8)", "T2 sequence (Q9H2K8 1-898)": "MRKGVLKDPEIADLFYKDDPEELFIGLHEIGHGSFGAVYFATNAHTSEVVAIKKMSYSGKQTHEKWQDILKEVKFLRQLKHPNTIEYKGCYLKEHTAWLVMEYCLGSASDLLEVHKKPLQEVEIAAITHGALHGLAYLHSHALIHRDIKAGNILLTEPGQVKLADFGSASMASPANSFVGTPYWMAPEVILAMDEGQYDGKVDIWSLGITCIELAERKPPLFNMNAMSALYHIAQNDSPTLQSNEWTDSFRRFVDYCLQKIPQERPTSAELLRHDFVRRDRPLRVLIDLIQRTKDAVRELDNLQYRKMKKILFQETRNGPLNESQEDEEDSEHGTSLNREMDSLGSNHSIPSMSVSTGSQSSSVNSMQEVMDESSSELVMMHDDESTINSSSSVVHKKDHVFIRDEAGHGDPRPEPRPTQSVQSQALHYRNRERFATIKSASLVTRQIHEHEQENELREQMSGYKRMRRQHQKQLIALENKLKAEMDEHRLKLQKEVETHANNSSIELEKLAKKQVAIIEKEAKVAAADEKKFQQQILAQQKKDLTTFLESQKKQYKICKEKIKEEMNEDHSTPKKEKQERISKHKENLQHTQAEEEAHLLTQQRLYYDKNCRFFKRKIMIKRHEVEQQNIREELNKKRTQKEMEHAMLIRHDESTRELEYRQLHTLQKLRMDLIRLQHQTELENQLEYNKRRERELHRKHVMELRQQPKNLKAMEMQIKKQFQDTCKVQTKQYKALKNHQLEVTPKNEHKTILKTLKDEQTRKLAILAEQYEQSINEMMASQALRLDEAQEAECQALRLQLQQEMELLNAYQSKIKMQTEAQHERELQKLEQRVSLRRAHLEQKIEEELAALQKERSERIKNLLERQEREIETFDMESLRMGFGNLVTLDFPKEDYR", "conditions": "for logFC: TAOK3 (Q9H2K8); for logFC TAOK3 (Q9H2K8): direction of change down"}, "[3]": {"biological_target": "protein kinases (human kinome) (Homo sapiens, UniProt O75460)", "sequence (O75460 19-977)": "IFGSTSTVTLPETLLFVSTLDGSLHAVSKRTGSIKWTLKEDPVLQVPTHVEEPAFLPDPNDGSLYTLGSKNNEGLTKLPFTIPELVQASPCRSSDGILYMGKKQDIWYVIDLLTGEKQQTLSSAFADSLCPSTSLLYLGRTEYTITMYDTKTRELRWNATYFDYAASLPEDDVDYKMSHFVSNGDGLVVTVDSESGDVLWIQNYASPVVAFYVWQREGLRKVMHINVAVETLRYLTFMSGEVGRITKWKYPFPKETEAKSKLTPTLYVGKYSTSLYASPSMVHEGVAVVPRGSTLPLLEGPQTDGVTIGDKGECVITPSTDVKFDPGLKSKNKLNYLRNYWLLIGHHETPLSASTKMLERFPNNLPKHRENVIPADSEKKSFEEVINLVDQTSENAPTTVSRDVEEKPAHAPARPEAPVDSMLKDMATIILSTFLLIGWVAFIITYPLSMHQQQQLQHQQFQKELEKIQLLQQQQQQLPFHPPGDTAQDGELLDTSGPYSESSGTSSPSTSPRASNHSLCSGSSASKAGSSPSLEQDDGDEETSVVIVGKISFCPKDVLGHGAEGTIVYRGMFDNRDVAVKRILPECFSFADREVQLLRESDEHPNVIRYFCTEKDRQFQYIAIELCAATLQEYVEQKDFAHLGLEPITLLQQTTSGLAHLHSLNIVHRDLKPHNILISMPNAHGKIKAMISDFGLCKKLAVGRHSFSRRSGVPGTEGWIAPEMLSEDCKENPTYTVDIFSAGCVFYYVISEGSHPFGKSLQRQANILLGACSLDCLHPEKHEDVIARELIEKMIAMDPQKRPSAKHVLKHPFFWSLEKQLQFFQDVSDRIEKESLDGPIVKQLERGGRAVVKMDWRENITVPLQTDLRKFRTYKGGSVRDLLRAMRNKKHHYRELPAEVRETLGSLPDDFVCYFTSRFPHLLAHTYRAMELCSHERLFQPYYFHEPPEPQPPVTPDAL", "conditions": "experiment wp076"}, "[4]": {"biological_target": "protein kinases (human kinome) (Homo sapiens, UniProt P48736)", "sequence (P48736 whole entry)": "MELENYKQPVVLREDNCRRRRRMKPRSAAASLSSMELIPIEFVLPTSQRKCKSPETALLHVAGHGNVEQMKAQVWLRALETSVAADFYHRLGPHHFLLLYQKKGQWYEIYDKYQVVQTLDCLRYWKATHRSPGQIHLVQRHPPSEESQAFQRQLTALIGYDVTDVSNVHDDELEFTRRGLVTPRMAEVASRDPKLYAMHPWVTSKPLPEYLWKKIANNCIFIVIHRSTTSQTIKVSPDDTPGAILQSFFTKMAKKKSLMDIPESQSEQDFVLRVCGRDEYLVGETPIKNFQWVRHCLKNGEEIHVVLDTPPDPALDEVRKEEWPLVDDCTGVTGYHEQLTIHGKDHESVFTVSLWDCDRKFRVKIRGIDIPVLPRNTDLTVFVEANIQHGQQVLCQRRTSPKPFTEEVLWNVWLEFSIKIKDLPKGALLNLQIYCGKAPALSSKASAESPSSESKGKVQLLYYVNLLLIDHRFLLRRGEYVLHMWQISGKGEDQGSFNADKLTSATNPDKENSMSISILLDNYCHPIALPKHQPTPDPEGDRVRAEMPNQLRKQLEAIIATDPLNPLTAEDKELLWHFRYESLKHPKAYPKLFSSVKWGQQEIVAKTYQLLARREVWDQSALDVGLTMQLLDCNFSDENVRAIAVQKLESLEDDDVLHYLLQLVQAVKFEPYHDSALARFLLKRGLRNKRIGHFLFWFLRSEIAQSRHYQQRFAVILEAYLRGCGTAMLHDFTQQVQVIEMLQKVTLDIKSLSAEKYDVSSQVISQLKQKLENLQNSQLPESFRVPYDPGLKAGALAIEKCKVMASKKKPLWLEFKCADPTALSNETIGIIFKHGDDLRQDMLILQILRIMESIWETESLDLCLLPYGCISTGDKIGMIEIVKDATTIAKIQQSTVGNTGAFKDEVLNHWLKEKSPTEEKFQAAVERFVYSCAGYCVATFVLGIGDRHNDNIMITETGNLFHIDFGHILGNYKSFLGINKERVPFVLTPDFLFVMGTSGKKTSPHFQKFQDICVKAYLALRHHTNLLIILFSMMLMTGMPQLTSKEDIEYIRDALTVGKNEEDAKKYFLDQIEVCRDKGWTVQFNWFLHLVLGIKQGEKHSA"}}, "note": "Where two headings read alike, the source gives them in different places.", "data": [{"smiles": "Cc1ccc(NC(=O)c2cccc(C(F)(F)F)c2)cc1N1Cc2cnc(Nc3ccc(N4CCN(Cc5cn(CCCCCOc6cccc7c6C(=O)N(C6CCC(=O)NC6=O)C7=O)nn5)CC4)nc3)nc2N(C)C1=O", "note": "(stereo not drawn) [DB0646, N-(3-(7-((6-(4-((1-(5-((2-(2,6-Dioxopiperidin-3-yl)-1,3-dioxoisoindolin-4-yl)oxy)pentyl)-1H-1,2,3-triazol-4-yl)methyl)piperazin-1-v)pyridin-3-yl)amino)-1-methyl-2-oxo-1,4-dihydropyrimido[4,5-d]pyrimidin-3(2H)-yl)-4-methylphenyl)-3-(trifluoromethyl)benzamide]", "values": [{"measurement": "logFC MAPK12 (P53778)", "setting": "[1]; Experiment wp105", "value": "−0.5939"}, {"measurement": "logFC", "setting": "[1]; experiment wp105", "value": "−0.5939"}, {"measurement": "logFC", "setting": "[1]; experiment wp172", "value": "−1.457"}, {"measurement": "logFC MAPK12 (P53778)", "setting": "[1]; experiment wp172", "value": "−1.457"}]}, {"smiles": "Cc1ccc(C(=O)Nc2ccc(CN3CCN(CCCOCCOCCOCCNC(=O)COc4cccc5c4C(=O)N(C4CCC(=O)NC4=O)C5=O)CC3)c(C(F)(F)F)c2)cc1C#Cc1cnc2cccnn12", "note": "(stereo not drawn) [SB1.G.187]", "values": [{"measurement": "logFC", "setting": "[2]; experiment wp103", "value": "−0.3727"}, {"measurement": "logFC", "setting": "[2]; experiment wp107", "value": "−0.3858"}, {"measurement": "logFC TAOK3 (Q9H2K8)", "setting": "[2]; experiment wp103", "value": "−0.3727"}, {"measurement": "logFC TAOK3 (Q9H2K8)", "setting": "[2]; experiment wp107", "value": "−0.3858"}]}, {"smiles": "O=C1CCC(N2C(=O)c3cccc(NCCCCCCCCN4CCC(NC(=O)c5[nH]ncc5NC(=O)c5c(Cl)cccc5Cl)CC4)c3C2=O)C(=O)N1", "note": "(stereo not drawn) [MFH.5.126.1]", "values": [{"measurement": "logFC of ERN1 (O75460)", "setting": "[3]", "value": "−0.4882"}, {"measurement": "logFC ERN1", "setting": "[3]; protein ERN1 (O75460), down", "value": "−0.4882"}, {"measurement": "logFC PIK3CG (P48736)", "setting": "[4]; Experiment wp076, direction of change down", "value": "−0.3735"}, {"measurement": "logFC", "setting": "[4]; PIK3CG (P48736), experiment wp076", "value": "−0.3735"}]}]}
